Experimental data from US20100209536A1, “Methods and Kits for Use in the Treatment and Prevention of Diseases or Conditions of the Immune System or Infectious Diseases” (The Brigham and Women's Hospital, Inc., priority 2006, published 2010).

Tests used:
[1] = tested on: any wheeze in children; assay: Project Viva vitamin D study: risk of any wheeze during the first three years of life; type: in vivo, human; conditions: n=416 cases; adjusted for the 12 factors in model A
Excerpt: Project Viva is a prospective cohort study examining prenatal factors in relation to outcomes of pregnancy and child health. Participants were recruited at eight obstetric offices of Harvard Vanguard Medical Associates, a large multispecialty urban/suburban group practice in eastern Massachusetts. At the 1st study visit, directly after the person's initial clinical prenatal visit, we obtained informed consent, administered a brief interview, and provided a take-home self-administered questionnaire. At the 2nd study visit, at 26 to 28 weeks gestation, we again administered a brief interview and provided a questionnaire. Project Viva participants gave birth at Brigham and Women's Hospital or Beth Israel Deaconess Medical Center in Boston. Within 3 days after delivery, we interviewed the mother. […]
We obtained data directly from participants and from medical records, as detailed previously (Yunginger et al., Am. Rev. Respir. Dis. 146:888-894, 1992). Briefly, maternal diet assessment at both the 1st and 2nd visits was based on a validated 166-item semi-quantitative food frequency questionnaire (FFQ) (Fawzi et al., Ann. Epidemiol. 14:754-762, 2004). […] To assess vitamin and supplement intake during the 1st trimester, we administered a separate interview that assessed dose, duration, and brand/type of multivitamin, prescribed prenatal vitamin, and supplements. […]

[2] = tested on: eczema in children at age 3 years; assay: Project Viva vitamin D study: risk of eczema in children at age 3 years; type: in vivo, human
Excerpt: (§1) Project Viva is a prospective cohort study examining prenatal factors in relation to outcomes of pregnancy and child health. Participants were recruited at eight obstetric offices of Harvard Vanguard Medical Associates, a large multispecialty urban/suburban group practice in eastern Massachusetts. At the 1st study visit, directly after the person's initial clinical prenatal visit, we obtained informed consent, administered a brief interview, and provided a take-home self-administered questionnaire. At the 2nd study visit, at 26 to 28 weeks gestation, we again administered a brief interview and provided a questionnaire. Project Viva participants gave birth at Brigham and Women's Hospital or Beth Israel Deaconess Medical Center in Boston. Within 3 days after delivery, we interviewed the mother. We reassessed mothers and children at 6 months, 1 year, and annually thereafter. At the time of this analysis, age 3 visits were almost complete.
(§2) We obtained data directly from participants and from medical records, as detailed previously (Yunginger et al., Am. Rev. Respir. Dis. 146:888-894, 1992). Briefly, maternal diet assessment at both the 1st and 2nd visits was based on a validated 166-item semi-quantitative food frequency questionnaire (FFQ) (Fawzi et al., Ann. Epidemiol. 14:754-762, 2004). We slightly modified the FFQ for use in pregnancy from the FFQ used in the Nurses' Health Study and other cohort studies (Willett, New York: Oxford University Press; 1998). Modifications for use in pregnancy included changing the time referent, beverage section, and vitamin and supplement assessment. The FFQ used at the 1st visit reflected intakes in the 1st trimester and the time referent was “during this pregnancy.” In addition, we collected information on beverage intake during 2 specified time periods: before and after the participant learned that they were pregnant. To assess vitamin and supplement intake during the 1st trimester, we administered a separate interview that assessed dose, duration, and brand/type of multivitamin, prescribed prenatal vitamin, and supplements. The FFQ used at the 2nd visit (26 to 28 weeks of gestation) reflected intakes during the 2nd trimester; the time referent was “during the past 3 months.” The 2nd trimester instrument was the same as the 1st trimester, except that we assessed use of vitamins/supplements as part of the self-completed FFQ and we collected beverage information during the one time period.
(§3) To calculate intake of nutrients, we used the Harvard nutrient composition database (Hu, N. Engl. J. Med. 337:1491-1499, 1997). We calculated vitamin D intake for each FFQ, and the mean of these two values was the assigned exposure for each woman during pregnancy (Rifas-Shiman, Paediatr. Perinat. Epidemiol. 20:35-42, 2006). We used a similar approach for retinol and calcium intakes. For analyses based on foods rather than nutrients, we focused on milk (servings/day), the major contributor to vitamin D intake in the diet. We also examined foods with possible effects on asthma risk (McKeever et al., Am. J. Respir. Crit. Care Med. 170:725-729, 2004; Devereux et al., J. Allergy Clin. Immunol. 115:1109-1117, 2005): fruits and vegetables (servings/day) and fish (servings/week).
(§4) Finally, we examined two related outcomes: respiratory infection and eczema. We defined “respiratory infection” as a positive response to at least one of three questions on any of the annual questionnaires: “since your child was born (was 12 months old, was 2 years old), have you been told by a health professional that he/she has: (a) bronchiolitis; (b) pneumonia; (c) bronchitis, croup, or any other respiratory infection?” We defined “eczema” as a positive response to one question on any of the annual questionnaires: “have you ever been told by a health care professional that your child has eczema?”
(§5) To assess the associations between vitamin D intake and clinical outcomes, we used multiple logistic regression models. […]

[3] = tested on: recurrent wheeze in children at age 3 years; assay: Project Viva vitamin D study: maternal intake during pregnancy and risk of recurrent wheeze in children at age 3 years; type: in vivo, human
Excerpt: as §1
Exclusion criteria included multiple gestation (e.g., twins), inability to answer questions in English, plans to move out of the area before delivery, and gestational age greater than 22 completed weeks at initial prenatal clinical appointment. Additional details of recruitment and follow-up have been presented elsewhere (Yunginger et al., Am. Rev. Respir. Dis. 146:888-894, 1992). Among 2,128 delivered infants in Project Viva, we excluded 228 because of missing first and second trimester diet assessment data and an additional 37 with a gestation of less than 34 completed weeks. […] Of the remaining 1,495 infants, 76 were lost to follow-up and 225 have not yet exited the 3-year time-window, leaving an analysis sample of 1,194 participants. Human subjects committees of Harvard Pilgrim Health Care, Brigham and. Women's Hospital, and Beth Israel Deaconess Medical Center approved the study protocols.
as §2
as §3, with “We also examined foods with possible effects on asthma risk (McKeever et al., Am. J. Respir. Crit. Care Med. 170:725-729, 2004; Devereux et al., J. Allergy Clin. Immunol. 115:1109-1117, 2005): fruits and vegetables (servings/day) and fish (servings/week).” left out

[4] = tested on: cellular response to dexamethasone; conditions: steroid-resistant asthmatics; cited from earlier work
[5] = tested on: respiratory infection in children at age 3 years; assay: Project Viva vitamin D study: risk of respiratory infection in children at age 3 years; type: in vivo, human
Excerpt: as §1, §2, §3, §4, §5

[6] = quartile 2 (median 513 IU) vs quartile 1
[7] = quartile 3 (median 603 IU) vs quartile 1
[8] = quartile 4 (median 724 IU) vs quartile 1

vitamin D
Odds ratio, any wheeze, per 100 IU increase of maternal intake [1]: 0.89 | Effect of maternal intake on risk of early childhood eczema ([2]; children at age 3 years): did not affect risk | Odds ratio, eczema, Multivariate model 1 [2, 6]: 0.88 | Odds ratio, eczema, Multivariate model 2 [2, 6]: 0.86 | Odds ratio, eczema, Unadjusted [2, 6]: 1.00 | Odds ratio, eczema, Multivariate model 1 [2, 7]: 0.94 | Odds ratio, eczema, Multivariate model 2 [2, 7]: 0.93 | Odds ratio, eczema, Unadjusted [2, 7]: 1.03 | Odds ratio, eczema, Multivariate model 1 [2, 8]: 0.95 | Odds ratio, eczema, Multivariate model 2 [2, 8]: 0.92 | Odds ratio, eczema, Unadjusted [2, 8]: 1.10 | Multivariate OR per 100 IU/day increase, recurrent wheeze ([3]; LMP in other seasons): 0.85 | Multivariate OR per 100 IU/day increase, recurrent wheeze ([3]; LMP in winter): 0.62 | Odds ratio, recurrent wheeze, model 2 with further control for child vitamin D intake from foods at 2 years ([3]; maternal intake quartiles, Table 2 model 2 plus child vitamin D intake from foods at 2 years): 0.34 | Odds ratio, recurrent wheeze, model 2 with further control for child use of a vitamin supplement at age 6 months ([3]; maternal intake quartiles, Table 2 model 2 plus child vitamin supplement at 6 months): 0.39 | Odds ratio, recurrent wheeze with 4+ wheezing episodes, per 100 IU increase ([3]; n=86 cases, adjusted for the 12 factors in model A): 0.79 | Odds ratio, recurrent wheeze and a doctor-diagnosis of asthma, per 100 IU increase ([3]; n=132 cases, adjusted for the 12 factors in model A): 0.82 | Odds ratio, recurrent wheeze, further adjustment for race/ethnicity and college education ([3]; per 100 IU/day maternal intake): 0.81 | Odds ratio, recurrent wheeze, per 100 IU/day, Food Only, Unadjusted ([3]; per 100 IU/day maternal intake, Food Only): 0.81 | Odds ratio, recurrent wheeze, per 100 IU/day, Supplement Only, Unadjusted ([3]; per 100 IU/day maternal intake, Supplement Only): 0.82 | Odds ratio, recurrent wheeze, per 100 IU/day, Total intake, Unadjusted ([3]; per 100 IU/day maternal intake, Total): 0.81 | Odds ratio, recurrent wheeze, per 100 IU/day, Food Only, Multivariate model A ([3]; per 100 IU/day, Food Only, adjusted for 12 factors): 0.79 | Odds ratio, recurrent wheeze, per 100 IU/day, Food Only, Multivariate model B ([3]; per 100 IU/day, Food Only, model A plus vitamin D from supplements): 0.80 | Odds ratio, recurrent wheeze, per 100 IU/day, Supplement Only, Multivariate model A ([3]; per 100 IU/day, Supplement Only, adjusted for 12 factors): 0.82 | Odds ratio, recurrent wheeze, per 100 IU/day, Supplement Only, Multivariate model B ([3]; per 100 IU/day, Supplement Only, model A plus vitamin D from foods): 0.82 | Odds ratio, recurrent wheeze, per 100 IU/day, Total, Multivariate model A ([3]; per 100 IU/day, Total, adjusted for 12 factors): 0.80 | Odds ratio, recurrent wheeze, per 100 IU/day, Total, Multivariate model C ([3]; per 100 IU/day, Total, model A plus maternal intake of calcium): 0.79 | Odds ratio, recurrent wheeze, per 100 IU/day, Total, Multivariate model D ([3]; per 100 IU/day, Total, model A plus maternal intake of retinol): 0.81 | Odds ratio, recurrent wheeze, Multivariate model 1 [3, 6]: 0.49 | Odds ratio, recurrent wheeze, Multivariate model 2 [3, 6]: 0.47 | Odds ratio, recurrent wheeze, Unadjusted ([3]; quartile 2 of maternal intake (median 513 IU, range 446-562) vs quartile 1, n = 1,194 pairs): 0.55 | Odds ratio, recurrent wheeze, Multivariate model 1 [3, 7]: 0.56 | Odds ratio, recurrent wheeze, Multivariate model 2 [3, 7]: 0.54 | Odds ratio, recurrent wheeze, Unadjusted ([3]; quartile 3 (median 603 IU, range 563-658) vs quartile 1): 0.55 | Odds ratio, recurrent wheeze, Multivariate model 1 [3, 8]: 0.41 | Odds ratio, recurrent wheeze, Multivariate model 2 [3, 8]: 0.38 | Odds ratio, recurrent wheeze, Unadjusted ([3]; quartile 4 (median 724 IU, range 659-1,145) vs quartile 1 (median 356 IU)): 0.39 | Effect of supplementation on cellular response to dexamethasone [4]: improve the cellular response to dexamethasone | Effect of maternal intake on risk of respiratory infections ([5]; children at age 3 years): did not affect risk | Odds ratio, respiratory infection, Multivariate model 1 [5, 6]: 0.73 | Odds ratio, respiratory infection, Multivariate model 2 [5, 6]: 0.74 | Odds ratio, respiratory infection, Unadjusted [5, 6]: 0.68 | Odds ratio, respiratory infection, Multivariate model 1 [5, 7]: 1.01 | Odds ratio, respiratory infection, Multivariate model 2 [5, 7]: 1.01 | Odds ratio, respiratory infection, Unadjusted [5, 7]: 0.92 | Odds ratio, respiratory infection, Multivariate model 1 [5, 8]: 0.74 | Odds ratio, respiratory infection, Multivariate model 2 [5, 8]: 0.75 | Odds ratio, respiratory infection, Unadjusted [5, 8]: 0.68
